Source: US20250152585A1, “PHARMACEUTICAL COMPOUND” (Duke Street Bio Limited, priority 2022, published 2025)
Like-named read-outs stand apart in the source and are kept apart here.

Key:
[1] = target: T1, N-terminally FLAG-tagged PARP2 (amino acids 1-583) (Homo sapiens, UniProt Q9UGN5); assay: PARP2 probe displacement HTRF assay; type: binding; details: binned Kd
T1 construct: N-terminally FLAG-tagged PARP2 (amino acids 1-583)
Procedure: Data analysis was performed identical as for PARP1.

[2] = target: T2, full length N-terminally FLAG-tagged PARP1 (Homo sapiens, UniProt P09874); assay: PARP1 probe displacement HTRF assay; details: for Selectivity: PARP1 over PARP2, ratio Kd (PARP2)/Kd (PARP1); for Kd: binned Kd
T2 sequence (P09874 whole entry): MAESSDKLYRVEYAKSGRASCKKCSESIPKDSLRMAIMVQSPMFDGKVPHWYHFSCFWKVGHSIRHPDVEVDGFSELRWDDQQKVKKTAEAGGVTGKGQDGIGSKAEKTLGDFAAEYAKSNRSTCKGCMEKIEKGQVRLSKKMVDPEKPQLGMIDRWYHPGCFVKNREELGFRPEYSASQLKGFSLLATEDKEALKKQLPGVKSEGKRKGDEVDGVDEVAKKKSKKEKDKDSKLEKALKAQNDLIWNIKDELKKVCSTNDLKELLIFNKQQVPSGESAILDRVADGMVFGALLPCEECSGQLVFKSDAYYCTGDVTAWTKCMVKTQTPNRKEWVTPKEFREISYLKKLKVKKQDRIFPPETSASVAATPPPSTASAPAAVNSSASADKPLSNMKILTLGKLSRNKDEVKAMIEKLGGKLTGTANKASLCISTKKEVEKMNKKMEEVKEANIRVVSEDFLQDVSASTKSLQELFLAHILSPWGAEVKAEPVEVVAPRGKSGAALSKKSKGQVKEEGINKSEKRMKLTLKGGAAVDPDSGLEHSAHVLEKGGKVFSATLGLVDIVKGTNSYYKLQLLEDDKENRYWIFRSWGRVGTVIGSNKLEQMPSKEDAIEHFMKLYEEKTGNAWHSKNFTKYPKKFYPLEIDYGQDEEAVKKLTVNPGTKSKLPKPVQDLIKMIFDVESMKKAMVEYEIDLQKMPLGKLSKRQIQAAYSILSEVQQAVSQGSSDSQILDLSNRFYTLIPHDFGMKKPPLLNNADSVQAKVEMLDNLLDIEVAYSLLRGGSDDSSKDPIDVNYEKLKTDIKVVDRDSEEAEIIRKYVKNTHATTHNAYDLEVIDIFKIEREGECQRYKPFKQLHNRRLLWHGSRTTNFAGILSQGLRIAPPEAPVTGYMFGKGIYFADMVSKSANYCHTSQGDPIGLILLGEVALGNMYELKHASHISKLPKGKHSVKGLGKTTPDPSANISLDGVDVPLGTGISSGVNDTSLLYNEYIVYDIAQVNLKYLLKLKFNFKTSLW

[3] = target: T2, full length N-terminally FLAG-tagged PARP1; assay: PARP1 biochemical DELFIA assay (auto-PARylation); parameters: recombinant full length human N-terminally FLAG-tagged PARP1
[4] = read-out: PARP1 HTRF, PARP1 probe displacement HTRF
[5] = binned IC50, PARP1 biochemical DELFIA assay
[6] = PARP1 HTRF, PARP1 probe displacement HTRF
[7] = binned IC50, biochemical auto-PARylation assay
[8] = read-out: PARP1 HTRF, probe displacement HTRF

T1 sequence (Q9UGN5 whole entry, the tested form may be a part): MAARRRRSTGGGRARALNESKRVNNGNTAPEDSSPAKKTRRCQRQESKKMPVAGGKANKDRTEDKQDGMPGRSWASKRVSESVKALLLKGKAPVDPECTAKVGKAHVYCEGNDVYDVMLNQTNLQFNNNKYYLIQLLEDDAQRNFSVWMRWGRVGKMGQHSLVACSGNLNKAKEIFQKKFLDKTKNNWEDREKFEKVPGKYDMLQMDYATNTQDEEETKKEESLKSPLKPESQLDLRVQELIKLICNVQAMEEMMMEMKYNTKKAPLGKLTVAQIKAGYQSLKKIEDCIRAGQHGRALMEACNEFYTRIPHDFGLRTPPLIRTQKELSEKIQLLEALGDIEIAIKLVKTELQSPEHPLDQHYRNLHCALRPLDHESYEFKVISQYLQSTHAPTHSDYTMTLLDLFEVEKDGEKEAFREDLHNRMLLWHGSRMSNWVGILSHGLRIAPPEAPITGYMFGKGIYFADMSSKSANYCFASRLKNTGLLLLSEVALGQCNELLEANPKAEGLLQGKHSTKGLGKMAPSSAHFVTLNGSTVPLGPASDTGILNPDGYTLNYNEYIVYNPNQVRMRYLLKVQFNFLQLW

Structure (SMILES) | Kd ([1]; PARP2 probe displacement HTRF) | Kd [2, 4] | IC50 [3, 5] | Kd [2, 6] | Kd ([1]; probe displacement HTRF) | Kd ([2]; PARP1 HTRF, probe displacement HTRF) | IC50 [3, 7] | Kd [2, 8] | Selectivity ([2]; probe displacement HTRF)
CNC(=O)c1ccc(N2CC(N3CCCC(c4nc5ccccc5c(=O)[nH]4)CC3)C2)cn1 (single isomer, unassigned) [Compound 145a] | 1 to 10 µM | < 0.01 µM | < 0.01 µM |  |  |  |  |  | +++ (+++ indicate a value of at least 100)
O=C(NCCF)c1ccc(N2CCC(N3CCCC(c4nc5ccccc5c(=O)[nH]4)C3)CC2)cn1 (single isomer, unassigned) [Compound 110a] | > 10 µM | < 0.01 µM | < 0.01 µM |  |  |  |  |  | +++ (+++ indicate a value of at least 100)
CNC(=O)c1ccc(N2CCC(N3CCCC(c4cc5ccccc5c(=O)[nH]4)C3)CC2)cn1 (single isomer, unassigned) [Compound 100b] | 1 to 10 µM | 0.01 to 0.1 µM | 0.01 to 0.1 µM |  |  |  |  |  | +++ (+++ indicate a value of at least 100)
CCc1cnc(C2CCN(C(=O)C3CCN(c4ccc(C(=O)NC)nc4)CC3)CC2)[nH]c1=O [Compound 41] | > 10 µM |  | 0.1 to 1 µM | 0.1 to 1 µM |  |  |  |  | + (+ indicates a value of 10 to less than 50)
CNC(=O)c1ccc(N2CCC(N3CCC(c4cc5cnccc5c(=O)[nH]4)C3)CC2)cn1 (racemic) [Compound 204rac] | > 10 µM | < 0.01 µM | < 0.01 µM |  |  |  |  |  | +++ (+++ indicate a value of at least 100)
CNC(=O)c1ccc(N2CCC(N3CCC(c4ccc(C(C)C)c(=O)[nH]4)C3)CC2)cn1 (racemic) [Compound 142rac] | 1 to 10 µM | < 0.01 µM | < 0.01 µM |  |  |  |  |  | +++ (+++ indicate a value of at least 100)
CCc1ccc(C2CCN(C3CCN(c4ccc(C(=O)NC)nc4)CC3)C2)[nH]c1=O (single isomer, unassigned) [Compound 72a] | 1 to 10 µM | 0.01 to 0.1 µM | 0.01 to 0.1 µM |  |  |  |  |  | +++ (+++ indicate a value of at least 100)
CNC(=O)c1ccc(N2CCC(n3cc(-c4nc5ccccc5c(=O)[nH]4)cn3)CC2)cn1 [Compound 17, N-methyl-5-(4-(4-(4-oxo-3,4-dihydroquinazolin-2-yl)-1H-pyrazol-1-yl)piperidin-1-yl)picolinamide] | > 10 µM |  | 0.01 to 0.1 µM | 0.01 to 0.1 µM |  |  |  |  | +++ (+++ indicate a value of at least 100)
CNC(=O)c1ccc(N2CCC(N3CCC(c4nc5c(c(C(F)(F)F)cn5C)c(=O)[nH]4)C3)CC2)cn1 (single isomer, unassigned) [Compound 170b] | < 0.01 µM | < 0.01 µM | < 0.01 µM |  |  |  |  |  | − (− indicates a value of less than 10)
O=C(NCC(F)(F)F)c1ccc(N2CCC(N3CCC(c4nc5ccccc5c(=O)[nH]4)C3)CC2)cn1 (single isomer, unassigned) [Compound 130b] | 0.1 to 1 µM | < 0.01 µM | < 0.01 µM |  |  |  |  |  | +++ (+++ indicate a value of at least 100)
CNC(=O)c1ccc(N2CCC(N3CCC(c4ccc(OC)c(=O)[nH]4)C3)CC2)c(C(F)(F)F)n1 (single isomer, unassigned) [Compound 152b] | > 10 µM | 0.01 to 0.1 µM | 0.01 to 0.1 µM |  |  |  |  |  | ++ (++ indicates a value of 50 to less than 100)
CCc1nc(C(=O)NC)ccc1N1CCC(N2CCC(c3nc4ccccc4c(=O)[nH]3)C2)CC1 (single isomer, unassigned) [Compound 118a] | > 10 µM | < 0.01 µM | < 0.01 µM |  |  |  |  |  | +++ (+++ indicate a value of at least 100)
CNC(=O)c1ccc(N2CCC(N3CCC(c4nc5c(c(C(F)(F)F)nn5C)c(=O)[nH]4)C3)CC2)cn1 (single isomer, unassigned) [Compound 187a] | 0.1 to 1 µM | 0.01 to 0.1 µM | 0.01 to 0.1 µM |  |  |  |  |  | − (− indicates a value of less than 10)
CNC(=O)c1ccc(N2CCC(N3CCC(c4cc5cccc(C(F)(F)F)c5c(=O)[nH]4)C3)CC2)cn1 (racemic) [Compound 135rac] | 0.01 to 0.1 µM | < 0.01 µM | < 0.01 µM |  |  |  |  |  | + (+ indicates a value of 10 to less than 50)
O=c1[nH]c(C2CCN(C3CCN(c4nccs4)CC3)C2)cc2ccccc12 (racemic) [Compound 254rac] |  |  |  |  | 1 to 10 µM |  | 0.01 to 0.1 µM | 0.1 to 1 µM | + (+ indicates a value of 10 to less than 50)
CNC(=O)c1ccc(N2CCC(N3CCCC(c4nc5ncccc5c(=O)[nH]4)C3)CC2)cn1 (single isomer, unassigned) [Compound 98b] | > 10 µM | 0.1 to 1 µM | 0.1 to 1 µM |  |  |  |  |  | + (+ indicates a value of 10 to less than 50)
O=c1[nH]c(C2CCN(C3CCC(F)(F)CC3)C2)nc2ccccc12 (single isomer, unassigned) [Compound 4a] | 0.1 to 1 µM | 0.1 to 1 µM | 0.1 to 1 µM |  |  |  |  |  | − (− indicates a value of less than 10)
CCc1ccc(C2CCN(C3CCN(c4cnc(C(=O)NC)cc4F)CC3)C2)[nH]c1=O (racemic) [Compound 257rac] |  |  |  |  | 1 to 10 µM |  | < 0.01 µM | < 0.01 µM | +++ (+++ indicate a value of at least 100)
CCc1ccc(C2CCCN(C3CCN(c4ccc(C(=O)NC)nc4)CC3)C2)[nH]c1=O (single isomer, unassigned) [Compound 53b, 5-{4-[3-(5-ethyl-6-oxo-1H-pyridin-2-yl)piperidin-1-yl]piperidin-1-yl}-N-methylpyridine-2-carboxamide] | > 10 µM |  | 0.1 to 1 µM | 0.1 to 1 µM |  |  |  |  | + (+ indicates a value of 10 to less than 50)
O=c1[nH]c(C2CCN(C3CCN(c4ccc(-c5nnn[nH]5)nc4)CC3)C2)nc2ccccc12 (racemic) [Compound 263rac] |  |  |  |  | 0.1 to 1 µM |  | 0.01 to 0.1 µM | 0.1 to 1 µM | − (− indicates a value of less than 10)
CNC(=O)c1ccc(N2CCC(CN3CCCC(c4nc5ccccc5c(=O)[nH]4)C3)CC2)cn1 (single isomer, unassigned) [Compound 9b] | 0.1 to 1 µM | 0.01 to 0.1 µM | 0.01 to 0.1 µM |  |  |  |  |  | − (− indicates a value of less than 10)
COCCNC(=O)c1ccc(N2CCC(N3CCCC(c4nc5ccccc5c(=O)[nH]4)C3)CC2)cn1 (single isomer, unassigned) [Compound 116b] | 1 to 10 µM | 0.1 to 1 µM | 0.1 to 1 µM |  |  |  |  |  | − (− indicates a value of less than 10)

The next lines start with results.

Kd ([1]; PARP2 probe displacement HTRF) | Kd [2, 4] | IC50 [3, 5] | Kd [2, 6] | Kd ([1]; probe displacement HTRF) | Kd ([2]; PARP1 HTRF, probe displacement HTRF) | IC50 [3, 7] | Kd [2, 8] | Structure (SMILES) | Selectivity ([2]; probe displacement HTRF)
 |  |  |  | 0.1 to 1 µM | < 0.01 µM | < 0.01 µM |  | CNC(=O)c1ccc(N2CCC(N3CC4(c5nc6c(c(=O)[nH]5)CCCC6)CC3C4)CC2)cn1 [Compound 361, N-methyl-5-(4-(4-(4-oxo-3,4,5,6,7,8-hexahydroquinazolin-2-yl)-2-azabicyclo[2.1.1]hexan-2-yl)piperidin-1-yl)picolinamide] | +++ (+++ indicate a value of at least 100)
 |  |  |  | > 10 µM |  | 0.1 to 1 µM | 0.1 to 1 µM | CCCc1ccc(C2CCN(C3CCN(c4ccc(C(=O)NC)nc4F)CC3)C2)[nH]c1=O (single isomer, unassigned) [Compound 269b] | + (+ indicates a value of 10 to less than 50)
 |  |  |  | 1 to 10 µM |  | < 0.01 µM | < 0.01 µM | CCc1ccc(C2CCN(C3CCN(c4ccc(C#N)cn4)CC3)C2)[nH]c1=O (single isomer, unassigned) [Compound 332b] | +++ (+++ indicate a value of at least 100)
 |  |  |  | 0.1 to 1 µM |  | < 0.01 µM | < 0.01 µM | O=c1[nH]c2ccc(N3CCC(N4CCC(c5cc6ccccc6c(=O)[nH]5)C4)CC3)cc2[nH]1 (racemic) [Compound 413rac] | +++ (+++ indicate a value of at least 100)
 |  |  |  | 0.1 to 1 µM |  | < 0.01 µM | < 0.01 µM | CCNC(=O)c1ccc(N2CCC(N3CCC(c4ccc(CC)c(=O)[nH]4)C3)CC2)c(F)n1 (racemic) [Compound 264rac] | +++ (+++ indicate a value of at least 100)
 |  |  |  | 0.1 to 1 µM |  | 0.01 to 0.1 µM | 0.01 to 0.1 µM | N#Cc1ccc(N2CCC(N3CCC(c4cc5cccc(F)c5c(=O)[nH]4)C3)CC2)nc1 (single isomer, unassigned) [Compound 340b] | + (+ indicates a value of 10 to less than 50)
 |  |  |  | > 10 µM |  | 0.1 to 1 µM | 0.1 to 1 µM | CNC(=O)c1ccc(N2CCC(N3CCCC(O)(c4nc5ccccc5c(=O)[nH]4)C3)CC2)cn1 (single isomer, unassigned) [Compound 327b] | − (− indicates a value of less than 10)
 |  |  |  | 0.1 to 1 µM |  | < 0.01 µM | < 0.01 µM | CNC(=O)c1ccc(N2CCC(N3CCC(c4cc5ccc(F)cc5c(=O)[nH]4)C3)CC2)c(C#N)n1 (single isomer, unassigned) [Compound 396b] | +++ (+++ indicate a value of at least 100)
 |  |  |  | 0.1 to 1 µM |  | < 0.01 µM | < 0.01 µM | CNC(=O)c1ncc(N2CCC(N3CCC(c4cc5ccc(F)cc5c(=O)[nH]4)C3)CC2)c(Cl)n1 (racemic) [Compound 400rac] | +++ (+++ indicate a value of at least 100)
 |  |  |  | 0.01 to 0.1 µM |  | 0.01 to 0.1 µM | 0.01 to 0.1 µM | CNC(=O)c1ccc(N2CCC(N3CCC(c4cc5ccc(F)cc5c(=O)[nH]4)C3)CC2)cc1F (single isomer, unassigned) [Compound 270a] | − (− indicates a value of less than 10)
